Structures can show the parent of a compound that is named as a salt.
Key:
human S1P5 receptor = molecular target: T1, human S1P5 receptor (Homo sapiens, UniProt Q9H228); test: In vitro functional activity (agonism), CHO-human-S1P5-Aequorin assay; format: cell-based; settings: for EC50: read-out: S1P5 pEC50 (converted)
T1 construct: host or cells: CHO (AequoScreen recombinant cell line, co-expressing mitochondrially targeted apo-aequorin)
Description: In Vitro Functional Activity (Agonism) on Human S1P5 Receptors
(§1) The CHO-human-S1P5-Aeqorin assay was bought from Euroscreen, Brussels (Euroscreen, Technical dossier, Human Lysophospholid S1P5 (Edg8) receptor, DNA clone and CHO AequoScreen™ recombinant cell-line, catalog no: ES-593-A, September 2006). Human-S1P5-Aequorin cells express mitochondrial targeted apo-Aequorin. Cells have to be loaded with coelanterazine, in order to reconstitute active Aequorin. After binding of agonists to the human S1P5 receptor the intracellular calcium concentration increases and binding of calcium to the apo-Aequorin/coelenterazine complex leads to an oxidation reaction of coelenterazine, which results in the production of apo-Aequorin, coelenteramide, CO2 and light (λmax 469 nm). This luminescent response is dependent on the agonist concentration. Luminescence is measured using the MicroBeta Jet (Perkin Elmer). Agonistic effects of compounds are expressed as pEC50. Compounds were tested at a 10 points half log concentration range, and 3 independent experiments were performed in single point's measurements.

human S1P3 receptor = molecular target: T2, human S1P3 receptor (Homo sapiens, UniProt Q99500); test: In vitro functional activity (agonism), CHO-human-S1P3-Aequorin assay; format: cell-based; settings: for EC50: read-out: S1P3 pEC50 (converted)
T2 construct: cell line established at Solvay Pharmaceuticals; host or cells: CHO K1 (CHO/Gα16/AEQ/h-S1P3)
T2 sequence (Q99500 whole entry): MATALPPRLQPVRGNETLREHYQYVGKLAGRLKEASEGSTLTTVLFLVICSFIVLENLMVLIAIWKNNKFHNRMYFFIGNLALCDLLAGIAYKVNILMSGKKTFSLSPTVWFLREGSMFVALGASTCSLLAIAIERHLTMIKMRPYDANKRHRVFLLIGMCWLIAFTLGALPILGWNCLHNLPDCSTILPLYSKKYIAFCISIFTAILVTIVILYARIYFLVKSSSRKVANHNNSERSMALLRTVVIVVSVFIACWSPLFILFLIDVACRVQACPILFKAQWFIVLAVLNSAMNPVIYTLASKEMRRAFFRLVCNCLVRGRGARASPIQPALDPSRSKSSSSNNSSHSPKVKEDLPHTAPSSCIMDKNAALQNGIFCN
Description: In Vitro Functional Activity (Agonism) on Human S1P3 Receptors
The CHO-human-S1P3-Aeqorin assay (CHO/Gα16/AEQ/h-S1P3) was established at Solvay Pharmaceuticals. The plasmid DNA coding for the S1P3 receptor (accession number in GenBank NM_005226 was purchased from UMR cDNA resource Centre (Rolla, Mo.). The pcDNA3.1/hS1P3 construct carrying the mitochondrially targeted apo-Aeqorin and Gα16 protein was transfected in CHO K1 cell-line.
as §1, with “Human-S1P3-Aequorin” for “The CHO-human-S1P5-Aeqorin assay was bought from Euroscreen, Brussels (Euroscreen, Technical dossier, Human Lysophospholid S1P5 (Edg8) receptor, DNA clone and CHO AequoScreen™ recombinant cell-line, catalog no: ES-593-A, September 2006). Human-S1P5-Aequorin”, “S1P3” for “S1P5”

human S1P1 = molecular target: T3, human S1P1 (Homo sapiens, UniProt P21453); test: In vitro functional activity (agonism), CHO-K1-human S1P1 cAMP assay; format: cell-based; settings: read-out: S1P1 pEC50 (converted)
T3 construct: host or cells: CHO-K1
T3 sequence (P21453 whole entry): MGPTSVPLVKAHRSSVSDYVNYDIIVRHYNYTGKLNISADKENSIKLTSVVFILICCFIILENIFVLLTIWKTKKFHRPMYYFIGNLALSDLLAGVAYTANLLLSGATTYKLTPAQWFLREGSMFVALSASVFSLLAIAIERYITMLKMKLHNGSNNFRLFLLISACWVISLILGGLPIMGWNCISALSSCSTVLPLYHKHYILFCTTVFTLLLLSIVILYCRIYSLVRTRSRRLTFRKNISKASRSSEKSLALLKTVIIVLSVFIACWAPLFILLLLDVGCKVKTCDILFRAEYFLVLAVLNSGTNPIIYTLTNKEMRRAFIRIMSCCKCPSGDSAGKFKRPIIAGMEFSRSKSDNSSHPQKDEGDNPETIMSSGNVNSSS
Protocol: In Vitro Functional Activity (Agonism) on Human S1P1 Receptors
The CHO-K1-Human S1P1-c-AMP assay was performed at Euroscreenfast, Brussels (Euroscreen, Human S1P1 coupling Gi/o), (Edg1) receptor, catalog no: FAST-0197C, December 2009).
Recombinant CHO-K1 cells expressing human S1P1, grown to mid-log Phase in culture media without antibiotics, detached, centrifuged and re-suspended. For agonist testing cells are mixed with compound and Forskolin and incubated at room temperature. Cells are lyses and cAMP concentration are estimated, according to the manufacturer specification, With the HTRF kit from CIS-BIO International (cat no 62AM2PEB).
Agonistic effects of compounds are expressed as a percentage of the activity of the reference compound at its EC100 concentration, EC50) is calculated and results are reported as pEC50. Compounds were tested at a 10 points half log concentration range duplicated in 1 experiment.

T1 sequence (Q9H228 whole entry): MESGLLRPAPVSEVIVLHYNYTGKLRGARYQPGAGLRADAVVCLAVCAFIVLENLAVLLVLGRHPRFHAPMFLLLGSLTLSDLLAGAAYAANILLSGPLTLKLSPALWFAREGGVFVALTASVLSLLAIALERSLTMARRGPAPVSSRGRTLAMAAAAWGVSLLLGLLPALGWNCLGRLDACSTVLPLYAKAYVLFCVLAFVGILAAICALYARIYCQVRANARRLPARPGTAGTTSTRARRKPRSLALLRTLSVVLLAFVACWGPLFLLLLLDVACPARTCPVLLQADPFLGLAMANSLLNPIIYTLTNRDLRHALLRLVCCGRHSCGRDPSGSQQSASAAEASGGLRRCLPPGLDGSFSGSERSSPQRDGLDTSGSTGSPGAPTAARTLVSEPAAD

Compound | S1P5 pEC50 (human S1P5 receptor) | S1P3 pEC50 (human S1P3 receptor) | EC50 (human S1P5 receptor) [µM] | EC50 (human S1P3 receptor) [µM] | EC50 (human S1P1) [µM] | melting point [°C]
3-{2-[4-(2,6-Dichloro-benzyloxy)-phenyl]-morpholin-4-yl}-2,2-di-fluoro-propionic acid triethylammonium salt [Compound 150] | 6.2 | <5.0 | – | – | – | –
O=C(O)CCN1CCOC(c2ccc(OCc3c(Cl)cccc3Cl)cc2)C1 (single isomer, unassigned; (+)) [Compound 34a, (+)-3-{2-[4-(2,6-Dichloro-benzyloxy)-phenyl]-morpholin-4-yl}-propionic acid hydrochloride] | – | – | 0.631 | > 31.6 | – | –
CCCc1ncc(OCCCOc2ccc(C3CN(CCC(=O)O)CCO3)cc2)s1 (stereo not shown) [Compound 3, 3-(2-{4-[3-(2-Propyl-thiazol-5-yloxy)-propoxy]-phenyl}-morpholin-4-yl)-propionic acid trifluoroacetic acid salt] | – | – | 10 | 15.8 | – | –
O=C(O)CCN1CCOC(c2ccc(OCCCc3ccccc3)cc2)C1 (stereo not shown) [Compound 16, 3-{2-[4-(3-Phenyl-propoxy)-phenyl]-morpholin-4-yl}-propionic acid trifluoroacetic acid salt] | – | – | 1 | 3.98 | – | –
O=C(O)CCN1CCOC(c2ccc(OCC3CCCCC3)cc2)C1 (stereo not shown) [Compound 24, 3-[2-(4-Cyclohexylmethoxy-phenyl)-morpholin-4-yl]-propionic acid trifluoroacetic acid salt] | – | – | 0.631 | > 31.6 | – | –
CCCCCCCCOc1ccc(C2CN(CCC(=O)O)CCO2)cc1 (stereo not shown) [Compound 41, 3-(2-(4-Octyloxy-phenyl)-morpholin-4-yl)-propionic acid hydro-chloride] | – | – | 0.251 | 2.51 | > 3.16 | –
O=C(O)CCN1CCOC(c2ccc(C(=O)Nc3c(Cl)cccc3Cl)cc2)C1 (stereo not shown) [Compound 53, 3-{2-[4-(2,6-Dichloro-phenylcarbamoyl)-phenyl]-morpholin-4-yl}-propionic acid hydrochloride] | – | – | 2 | > 10 | – | –
COc1cc(C2CN(CCC(=O)O)CCO2)ccc1OCc1ccccc1C(F)(F)F.Cl (stereo not shown) [Compound 66, 3-{2-[3-Methoxy-4-(2-trifluoromethyl-benzyloxy)-phenyl]-morpholin-4-yl}-propionic acid hydrochloride] | – | – | 0.631 | > 10 | – | 170 to 172
Cc1cc(OCc2ccc3ccccc3c2)ccc1C1CN(CCC(=O)O)CCO1 (stereo not shown) [Compound 76, 3-{2-[2-Methyl-4-(naphthalen-2-ylmethoxy)-phenyl]-morpholin-4-yl}-propionic acid] | – | – | 2.51 | > 10 | – | –
Cc1cc(OCC2CCC3CC2C3(C)C)ccc1C1CN(CCC(=O)O)CCO1 (stereo not shown) [Compound 84, 3-{2-[4-(6,6-Dimethyl-bicyclo[3.1.1]hept-2-ylmethoxy)-2-methyl-phenyl]-morpholin-4-yl}-propionic acid] | – | – | 3.98 | > 10 | – | –
Cc1cc(OCc2cccc(Oc3ccccc3)c2)ccc1C1CN(CCC(=O)O)CCO1 (stereo not shown) [Compound 92, 3-{2-[2-Methyl-4-(3-phenoxy-benzyloxy)-phenyl]-morpholin-4-yl}-propionic acid] | – | – | 5.01 | > 10 | – | –
Cc1cc(OCc2cccc(OCc3ccccc3)c2)ccc1C1CN(CCC(=O)O)CCO1 (stereo not shown) [Compound 100, 3-{2-[4-(3-Benzyloxy-benzyloxy)-2-methyl-phenyl]-morpholin-4-yl}-propionic acid] | – | – | 3.98 | > 10 | – | –
CCCCc1ccc(COc2ccc(C3CN(CCC(=O)O)CCO3)c(C)c2)cc1 (stereo not shown) [Compound 117, 3-{2-[4-(4-Butyl-benzyloxy)-2-methyl-phenyl]-morpholin-4-yl}-propionic acid] | – | – | 3.98 | > 10 | – | –
Cc1cc(OCc2ccc(C(C)(C)C)cc2)ccc1C1CN(CCC(=O)O)CCO1 (stereo not shown) [Compound 127, 3-{2-[4-(4-tert-Butyl-benzyloxy)-2-methyl-phenyl]-morpholin-4-yl}-propionic acid] | – | – | 0.631 | > 10 | – | –
Cc1cc(OCc2c(Cl)cccc2Cl)ccc1C1CN(CCC(=O)O)CCO1 (stereo not shown) [Compound 130, 3-{2-[4-(2,6-Dichloro-benzyloxy)-2-methyl-phenyl]-morpholin-4-yl}-propionic acid trifluoroacetic acid salt] | – | – | 0.0794 | > 31.6 | > 3.16 | –
O=C(O)CCN1CCOC(c2ccc(OCc3c(Cl)cccc3Cl)c(C(F)(F)F)c2)C1 (stereo not shown) [Compound 131, 3-{2-[4-(2,6-Dichloro-benzyloxy)-3-trifluoromethyl-phenyl]-morpholin-4-yl}-propionic acid trifluoroacetic acid salt] | – | – | 1 | > 10 | – | –
CCCCCCCCOc1ccc(C2CN(CCP(=O)(O)O)CCO2)cc1 (stereo not shown) [Compound 137, {2-[2-(4-Octyloxy-phenyl)-morpholin-4-yl]-ethyl}-phosphonic acid] | – | – | 0.1 | 0.501 | – | –
Cc1cc(C2CN(CCC(=O)O)CCO2)ccc1OCc1c(F)cccc1Cl (stereo not shown) [Compound 144, 3-{2-[4-(2-Chloro-6-fluoro-benzyloxy)-3-methyl-phenyl]-morpholin-4-yl}-propionic acid hydrochloride] | – | – | 0.631 | > 10 | – | –
O=C(O)CCN1CCOC(c2ccc(OCc3c(Cl)cccc3C(F)(F)F)cc2)C1 (stereo not shown) [Compound 153, 3-{2-[4-(2-Chloro-6-trifluoromethyl-benzyloxy)-phenyl]-morpholin-4-yl}-propionic acid hydrochloride] | – | – | 0.1 | > 10 | > 3.16 | –
CCc1cc(Cl)c(COc2ccc(C3CN(CCC(=O)O)CCO3)cc2)c(Cl)c1 (stereo not shown) [Compound 164, 3-{2-[4-(2,6-Dichloro-4-ethyl-benzyloxy)-phenyl]-morpholin-4-yl}-propionic acid hydrochloride] | – | – | 0.316 | 2 | – | –
O=C(O)CCN1CCOC(c2ccc(OCCCc3cccc(F)c3F)cc2)C1 (stereo not shown) [Compound 174, 3-(2-{4-[3-(2,3-Difluoro-phenyl)-propoxy]-phenyl}-morpholin-4-yl)-propionic acid hydrochloride] | – | – | 1.58 | 5.01 | – | –
Cl.O=C(O)CCN1CCOC(c2ccc(OCc3c(Cl)cccc3Cl)cc2F)C1 (stereo not shown) [Compound 179, 3-{2-[4-(2,6-Dichloro-benzyloxy)-2-fluoro-phenyl]-morpholin-4-yl}-propionic acid hydrochloride] | – | – | 0.126 | > 10 | > 3.16 | 174.5 to 178
CCCCCCCCOc1ccc(C2CN(CCC(=O)O)C(C)(C)CO2)cc1 (stereo not shown) [Compound 187, 3-[5,5-Dimethyl-2-(4-octyloxy-phenyl)-morpholin-4-yl]-propionic acid hydrochloride] | – | – | 0.794 | 3.16 | – | –
Cc1cccc2c1C(Oc1ccc(C3CN(CCC(=O)O)CCO3)cc1)CC2 (stereo not shown) [Compound 220, 3-{2-[4-(7-Methyl-indan-1-yloxy)-phenyl]-morpholin-4-yl}-propionic acid] | – | – | 0.158 | 0.251 | – | 134 to 139
Clc1cccc(Cl)c1COc1ccc(C2CN(CCc3nn[nH]n3)CCO2)cc1 (stereo not shown) [Compound 228, 2-[4-(2,6-Dichloro-benzyloxy)-phenyl]-4-[2-(2H-tetrazol-5-yl)-ethyl]-morpholine hydrochloride] | – | – | 0.158 | > 10 | > 3.16 | –
CCCCCCCCOc1cccc(C2CN(CCC(=O)O)CCO2)c1.Cl (stereo not shown) [Compound 231, 3-[2-(3-Octyloxy-phenyl)-morpholin-4-yl]-propionic acid hydrochloride] | – | – | 0.251 | > 10 | – | 218 to 220
